In patent publication US12227742B2, “Nucleic acid modifiers” (THE BROAD INSTITUTE, INC., priority 2017, dated 2025):
“Also recorded” adds a separate entry of the source.

Experiments:
Factor VII = settings: LNP siRNA systems containing these lipids; cited from earlier work
supercoiled plasmid DNA = assay: Plasmid DNA cleavage by small-molecule strand breakers (gel electrophoresis); assay type: biochemical; settings: for DNA cleavage activity on supercoiled plasmid: gel electrophoresis, FIG. 19A-19D; for DNA cleavage activity on supercoiled plasmid / Effect of reducing agent on DNA cleavage: supercoiled plasmid; for Effect of reducing agent on DNA cleavage: with reducing agent, FIG. 19A, 19B
Procedure: Nitracrine (compound 1.15) was synthesized according to the reaction scheme depicted in FIG. 5. Plasmid DNA was incubated with nitracrine alone (10, 12, 14 μM), nitracrine with exposure to UV (365 nm), or nitracrine with exposure to UV and reducing agent TCEP (FIG. 8A). The same experiment was repeated but using 16, 18, or 20 μM nitracrine (FIG. 8B).
Plasmid DNA was incubated with nitracrine alone (10, 12, 14 μM), nitracrine with exposure to UV (365 nm), or nitracrine with exposure to UV and reducing agent DTT (FIG. 9A). The same experiment was repeated but using 16, 18, or 20 μM nitracrine (FIG. 9B).
Plasmid DNA was incubated with 16 μM nitracrine and exposed to UV (365 nm) over a range of 30-60 minutes (FIG. 10).
DNA cleavage activity of synthetic strand breakers. A series of small molecule DNA strand breakers having diverse structures and cleavage mechanisms were tested (FIG. 19A-19D). A supercoiled plasmid was used as a model substrate DNA, as both single and double-strand breaks can easily be detected using gel electrophoresis.

pcDNA = pcDNA cleavage by compound 1.15, gel electrophoresis; assay type: biochemical
target DNA = assay: AsCpf1 activity, mutational analysis; assay type: biochemical

CCCCC/C=C\C/C=C\CCCCCCCC(=O)OCC(CN(C)C)OC(=O)CCCCCCC/C=C\C/C=C\CCCCC (stereo not shown) [DLinDAP, 1,2-dilineoyl-3-dimethylammonium-propane]
gene silencing potency in hepatocytes in vivo (rank order) (Factor VII): DLinKC2-DMA>DLinKDMA>DLinDMA>>DLinDAP

CCCCC/C=C\C/C=C\CCCCCCCCOCC(CN(C)C)OCCCCCCCC/C=C\C/C=C\CCCCC (stereo not shown) [DLinDMA, 1,2-dilinoleyloxy-3-N,N-dimethylaminopropane]
gene silencing potency in hepatocytes in vivo (rank order) (Factor VII): DLinKC2-DMA>DLinKDMA>DLinDMA>>DLinDAP

CCCCC/C=C\C/C=C\CCCCCCCCC1(CCCCCCCC/C=C\C/C=C\CCCCC)OCC(CCN(C)C)O1 (stereo not shown) [DLinKC2-DMA, 1,2-dilinoleyl-4-(2-dimethylaminoethyl)-[1,3]-dioxolane]
gene silencing potency in hepatocytes in vivo (rank order) (Factor VII): DLinKC2-DMA>DLinKDMA>DLinDMA>>DLinDAP

CCCCC/C=C\C/C=C\CCCCCCCCC1(CCCCCCCC/C=C\C/C=C\CCCCC)OCC(CN(C)C)O1 (stereo not shown) [DLinKDMA, 1,2-dilinoleyloxy-keto-N,N-dimethyl-3-aminopropane]
gene silencing potency in hepatocytes in vivo (rank order) (Factor VII): DLinKC2-DMA>DLinKDMA>DLinDMA>>DLinDAP

CC(C)C(=O)O[C@H]1c2c(c3c(=O)c4cccc(O)c4c(=O)c=3c2=[N+]=[N-])[C@@H](O)[C@H]2O[C@@]21C [FL-120B]
DNA cleavage activity on supercoiled plasmid (supercoiled plasmid DNA): cleave DNA at low micromolar concentrations | Effect of reducing agent on DNA cleavage (supercoiled plasmid DNA): accelerated by a reducing agent

CC[C@@]1(O[C@H]2C[C@H](OC)[C@@H](O)[C@H](C)O2)[C@H](O[C@@H]2C[C@H](O)[C@@H](N(C)C)[C@H](C)O2)C2=Cc3c(O)c4c(c(O)c3C2=C(O)[C@@H]1[C@H]1C(=O)c2c(c(=[N+]=[N-])c3c(O)c5c(=O)ccc(=O)c5c(O)c23)[C@@H](O[C@@H]2C[C@H](O)[C@@H](N(C)C)[C@H](C)O2)[C@@]1(CC)O[C@H]1C[C@H](OC)[C@@H](O)[C@H](C)O1)C(=O)C=CC4=O [Lomaiviticin C]
DNA cleavage activity on supercoiled plasmid (supercoiled plasmid DNA): cleave DNA at low micromolar concentrations | Effect of reducing agent on DNA cleavage (supercoiled plasmid DNA): accelerated by a reducing agent

CN(C)CCCNc1c2ccccc2nc2cccc([N+](=O)[O-])c12 [Nitracrine]
DNA cleavage over UV exposure time (supercoiled plasmid DNA; plasmid DNA, 16 μM nitracrine, UV 365 nm for 30-60 minutes): Cleavage was observed under all conditions | DNA cleavage with exposure to UV (supercoiled plasmid DNA; plasmid DNA, nitracrine 10-20 μM, UV 365 nm): DNA cleavage was observed at all nitracrine concentrations | DNA cleavage with exposure to UV and reducing agent DTT (supercoiled plasmid DNA; plasmid DNA, nitracrine 10-20 μM, UV 365 nm, DTT): including with DTT | DNA cleavage activity on supercoiled plasmid (supercoiled plasmid DNA): cleaves DNA when irradiated by light

CN(C)CCCNc1c2ccccc2nc2cccc([N+](=O)[O-])c12 [compound 1.15, nitracrine]
pcDNA cleavage (pcDNA; 16 μM, UV (365 nm) from 30 to 60 min): pcDNA cleavage | pcDNA cleavage (pcDNA; 10-20 μM, UV (365 nm), presence and absence of reducing agent DTT): pcDNA cleavage | pcDNA cleavage (pcDNA; 10-20 μM, UV (365 nm), presence and absence of reducing agent TCEP): pcDNA cleavage

G783P: AsCpf1 mutant, WED
activity (target DNA): reduced activities; also recorded: Reduced activity

R176A: AsCpf1 mutant, REC1
activity (target DNA): reduced activities; also recorded: Reduced activity

R192A: AsCpf1 mutant, REC1
activity (target DNA): reduced activities; also recorded: Reduced activity

R951A: AsCpf1 mutant, bridge helix
activity (target DNA): reduced activities
